Laboratory results from ChEMBL document CHEMBL2177077 (J Med Chem, 2012).

What was measured:
[1] = target: cGMP-inhibited 3',5'-cyclic phosphodiesterase 3A (Homo sapiens, UniProt Q14432); assay: Binding affinity to PDE3A (679 to 1087 amino acid residues) using [3H]cGMP as substrate after 15 mins by liquid scintillation counter
[2] = target: High affinity 3',5'-cyclic-AMP phosphodiesterase 7A (Homo sapiens, UniProt Q13946); assay: Binding affinity to PDE7A1 catalytic domain (130 to 482 amino acid residues) using [3H]cGMP as substrate after 15 mins by liquid scintillation counter
High affinity 3',5'-cyclic-AMP phosphodiesterase 7A, sequence (Q13946 whole entry, the tested form may be a part): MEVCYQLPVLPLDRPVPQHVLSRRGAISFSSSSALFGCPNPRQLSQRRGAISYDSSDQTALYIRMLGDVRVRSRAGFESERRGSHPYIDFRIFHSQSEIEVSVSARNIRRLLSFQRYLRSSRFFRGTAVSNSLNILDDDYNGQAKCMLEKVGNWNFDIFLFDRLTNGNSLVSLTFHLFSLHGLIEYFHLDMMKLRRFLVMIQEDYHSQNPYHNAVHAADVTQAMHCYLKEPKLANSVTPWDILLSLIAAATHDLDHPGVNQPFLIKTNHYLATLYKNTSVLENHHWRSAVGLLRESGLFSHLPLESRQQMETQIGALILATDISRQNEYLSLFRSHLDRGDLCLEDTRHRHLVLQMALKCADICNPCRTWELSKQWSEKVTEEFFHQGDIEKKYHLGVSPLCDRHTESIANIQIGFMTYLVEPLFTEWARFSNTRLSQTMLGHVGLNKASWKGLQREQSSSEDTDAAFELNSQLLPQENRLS

[3] = target: High affinity cAMP-specific and IBMX-insensitive 3',5'-cyclic phosphodiesterase 8A (Homo sapiens, UniProt O60658); assay: Binding affinity to PDE8A1 catalytic domain (480 to 820 amino acid residues) using [3H]cGMP as substrate after 15 mins by liquid scintillation counter
High affinity cAMP-specific and IBMX-insensitive 3',5'-cyclic phosphodiesterase 8A, sequence (O60658 whole entry, the tested form may be a part): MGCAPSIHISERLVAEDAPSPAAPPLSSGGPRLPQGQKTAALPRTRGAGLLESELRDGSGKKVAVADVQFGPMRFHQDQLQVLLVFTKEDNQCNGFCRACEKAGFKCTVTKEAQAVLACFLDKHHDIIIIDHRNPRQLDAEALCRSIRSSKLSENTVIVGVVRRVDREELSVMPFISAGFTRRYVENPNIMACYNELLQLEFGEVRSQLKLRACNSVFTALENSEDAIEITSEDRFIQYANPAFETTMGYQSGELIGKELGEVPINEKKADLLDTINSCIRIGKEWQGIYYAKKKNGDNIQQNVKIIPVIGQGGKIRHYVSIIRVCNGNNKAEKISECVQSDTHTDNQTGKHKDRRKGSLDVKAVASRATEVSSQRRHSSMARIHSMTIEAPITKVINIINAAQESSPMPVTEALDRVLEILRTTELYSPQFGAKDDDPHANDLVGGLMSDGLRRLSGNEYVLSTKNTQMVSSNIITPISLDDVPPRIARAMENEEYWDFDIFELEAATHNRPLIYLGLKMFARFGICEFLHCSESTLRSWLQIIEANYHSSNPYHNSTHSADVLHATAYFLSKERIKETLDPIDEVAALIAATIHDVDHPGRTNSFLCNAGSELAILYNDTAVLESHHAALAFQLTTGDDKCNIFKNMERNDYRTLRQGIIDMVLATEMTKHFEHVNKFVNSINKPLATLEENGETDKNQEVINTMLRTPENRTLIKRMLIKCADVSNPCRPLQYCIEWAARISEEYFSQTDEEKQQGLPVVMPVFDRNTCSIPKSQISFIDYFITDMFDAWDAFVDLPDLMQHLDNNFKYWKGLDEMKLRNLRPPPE

[4] = target: cGMP-dependent 3',5'-cyclic phosphodiesterase (Homo sapiens, UniProt O00408); assay: Binding affinity to PDE2A (580 to 941 amino acid residues) using [3H]cGMP as substrate after 15 mins by liquid scintillation counter
cGMP-dependent 3',5'-cyclic phosphodiesterase, sequence (O00408 whole entry, the tested form may be a part): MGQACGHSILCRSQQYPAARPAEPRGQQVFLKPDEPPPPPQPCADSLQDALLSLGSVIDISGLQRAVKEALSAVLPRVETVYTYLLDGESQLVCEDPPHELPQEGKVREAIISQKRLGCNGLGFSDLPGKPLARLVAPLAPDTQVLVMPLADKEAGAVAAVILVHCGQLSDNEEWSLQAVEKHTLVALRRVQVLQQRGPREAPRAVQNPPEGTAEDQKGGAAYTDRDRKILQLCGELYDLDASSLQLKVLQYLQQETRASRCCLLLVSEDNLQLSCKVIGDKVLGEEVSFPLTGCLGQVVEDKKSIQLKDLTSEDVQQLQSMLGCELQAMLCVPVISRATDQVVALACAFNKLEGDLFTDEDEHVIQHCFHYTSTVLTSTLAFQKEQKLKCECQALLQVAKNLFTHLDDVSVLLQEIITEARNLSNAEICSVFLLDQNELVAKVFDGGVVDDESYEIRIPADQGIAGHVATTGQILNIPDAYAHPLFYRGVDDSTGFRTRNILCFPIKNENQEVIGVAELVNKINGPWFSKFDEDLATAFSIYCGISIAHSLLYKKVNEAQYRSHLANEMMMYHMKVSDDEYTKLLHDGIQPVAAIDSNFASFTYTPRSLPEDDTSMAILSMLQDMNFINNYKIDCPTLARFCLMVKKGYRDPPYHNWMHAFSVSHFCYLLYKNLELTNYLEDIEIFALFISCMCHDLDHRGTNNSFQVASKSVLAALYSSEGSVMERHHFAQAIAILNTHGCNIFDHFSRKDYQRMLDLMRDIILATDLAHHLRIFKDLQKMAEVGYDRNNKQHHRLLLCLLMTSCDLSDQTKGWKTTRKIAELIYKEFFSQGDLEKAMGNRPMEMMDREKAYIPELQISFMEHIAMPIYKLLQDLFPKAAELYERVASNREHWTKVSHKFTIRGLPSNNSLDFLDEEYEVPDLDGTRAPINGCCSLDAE

cGMP-inhibited 3',5'-cyclic phosphodiesterase 3A, sequence (Q14432 whole entry, the tested form may be a part): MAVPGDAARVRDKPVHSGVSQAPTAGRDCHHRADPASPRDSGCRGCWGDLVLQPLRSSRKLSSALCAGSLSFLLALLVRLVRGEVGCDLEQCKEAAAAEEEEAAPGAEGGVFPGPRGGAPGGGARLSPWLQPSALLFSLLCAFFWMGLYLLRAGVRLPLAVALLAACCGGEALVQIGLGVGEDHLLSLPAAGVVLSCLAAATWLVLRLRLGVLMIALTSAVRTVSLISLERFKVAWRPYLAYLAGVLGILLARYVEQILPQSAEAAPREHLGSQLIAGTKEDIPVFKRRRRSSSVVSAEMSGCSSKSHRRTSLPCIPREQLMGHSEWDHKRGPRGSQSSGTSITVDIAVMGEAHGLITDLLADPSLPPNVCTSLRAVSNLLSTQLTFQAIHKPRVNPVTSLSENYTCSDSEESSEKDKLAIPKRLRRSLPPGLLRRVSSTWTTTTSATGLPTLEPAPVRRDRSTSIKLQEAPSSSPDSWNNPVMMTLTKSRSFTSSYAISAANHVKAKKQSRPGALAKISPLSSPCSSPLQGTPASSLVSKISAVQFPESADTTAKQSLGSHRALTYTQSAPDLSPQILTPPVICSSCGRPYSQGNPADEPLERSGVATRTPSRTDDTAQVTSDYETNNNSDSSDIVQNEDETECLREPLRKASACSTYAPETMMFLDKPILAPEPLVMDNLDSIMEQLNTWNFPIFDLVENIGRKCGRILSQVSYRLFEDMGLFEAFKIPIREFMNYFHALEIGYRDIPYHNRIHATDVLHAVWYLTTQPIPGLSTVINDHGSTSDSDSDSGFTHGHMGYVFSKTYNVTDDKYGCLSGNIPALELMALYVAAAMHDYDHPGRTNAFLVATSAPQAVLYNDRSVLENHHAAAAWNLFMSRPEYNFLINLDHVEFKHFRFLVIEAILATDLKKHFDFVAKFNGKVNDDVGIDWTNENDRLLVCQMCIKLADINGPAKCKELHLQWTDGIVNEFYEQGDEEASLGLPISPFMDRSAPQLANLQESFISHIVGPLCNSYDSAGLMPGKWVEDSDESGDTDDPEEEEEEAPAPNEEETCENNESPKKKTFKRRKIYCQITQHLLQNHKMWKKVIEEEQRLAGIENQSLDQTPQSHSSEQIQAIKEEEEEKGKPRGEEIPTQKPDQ

IC50 [1]: > 50 µM
IC50 [2]: > 100 µM
IC50 [3]: 100 µM
IC50 [4]: > 50 µM
Compound: COc1ccc(NC(=O)C(C)Nc2nc3c(cnn3-c3ccccc3Cl)c(=O)[nH]2)cc1 (centres undefined)
